PMC9890130 (Clinical cancer research : an official journal of the …, 2023)
Each block holds one compound with its values, some of them ahead of it. Bridge positions count the residues as written; N and C are the ends. Square brackets hold non-standard residues; d marks the D form. Peptide text beside a SMILES is read from it. * marks the point of attachment. DOTA = O=C(O)CN1CCN(CC(=O)O)CCN(CC(=O)*)CCN(CC(=O)O)CC1; Trp(1-CH2COOH) = N[C@@H](Cc1cn(CC(=O)O)c2ccccc12)C(=O)O; Hyp = O=C(O)[C@@H]1C[C@@H](O)CN1; NMeNle = CCCC[C@H](NC)C(=O)O; NMeA = CN[C@@H](C)C(=O)O

Tests used:
MDAMB231 xenografts [1] = details: NSG, mouse, in vivo, iv, 1 h
MDAMB231 xenografts [2] = experiment: Ex vivo biodistribution in mice with MDAMB231 xenografts; details: NSG mice bearing MDAMB231 tumors, n=4-5
[3] = In vivo stability of [^68Ga]Ga-DK223; set-up: species or system mice; details: urine collected at 60 min after i.v. injection, radio-HPLC; n=3
SUM149 cells = experiment: In vitro binding assay with [^68Ga]Ga-DK223; type: cell-based, human; details: 1×10^6 cells, ~1 μCi, 45 min at 4°C
[4] = Ex vivo biodistribution in BFTC909 xenografts; set-up: species or system NSG mice; details: NSG, mouse, tumor, iv, 50 uCi, total radioactivity
[5] = predicted residence time in human organ from mouse pharmacokinetic data
in vivo = details: NSG, mouse, iv, total radioactivity
[6] = Ex vivo biodistribution in SCaBER xenografts; set-up: species or system NSG mice; details: NSG, mouse, tumor, iv, 50 uCi, total radioactivity
SCaBER cells = experiment: In vitro binding assay with [^68Ga]Ga-DK223; type: cell-based, human; details: 1×10^6 cells, ~1 μCi, 45 min at 4°C
[7] = cited from earlier work
BFTC909 xenografts [8] = experiment: [^68Ga]Ga-DK223 PET-CT of BFTC909 xenografts after aPD-L1 treatment; type: in vivo, NSG mice; details: 24 h after 10 mg/kg mAb i.v.; PET 60 min after tracer
BFTC909 cells = experiment: [^68Ga]Ga-DK223 uptake in BFTC909 cells with and without aPD-L1 mAbs; type: cell-based, human; details: 60 nM mAb
BFTC909 xenografts [9] = type: in vivo, NSG mice; details: 10 mg/kg
[10] = %ID/g [^68Ga]Ga-DK223, Adrenals
[11] = %ID/g [^68Ga]Ga-DK223, Pancreas

%ID/g [^68Ga]Ga-DK223, Adrenals (MDAMB231 xenografts [1]): 4.74 ± 3.64 %ID/g
%ID/g [^68Ga]Ga-DK223, Blood (MDAMB231 xenografts [1]): 3.05 ± 0.11 %ID/g
%ID/g [^68Ga]Ga-DK223, Femur (MDAMB231 xenografts [1]): 0.89 ± 0.06 %ID/g
%ID/g [^68Ga]Ga-DK223, Heart (MDAMB231 xenografts [1]): 0.95 ± 0.07 %ID/g
%ID/g [^68Ga]Ga-DK223, Lung (MDAMB231 xenografts [1]): 4.7 ± 0.42 %ID/g
%ID/g [^68Ga]Ga-DK223, Muscle (MDAMB231 xenografts [1]): 0.36 ± 0.04 %ID/g
%ID/g [^68Ga]Ga-DK223, Tumor (MDAMB231 xenografts [1]): 15.21 ± 1.43 %ID/g
%ID/g [^68Ga]Ga-DK223, Ovaries (MDAMB231 xenografts [1]; female): 0.93 ± 0.08 %ID/g
%ID/g [^68Ga]Ga-DK223, Kidney (MDAMB231 xenografts [2]; 5 min after injection): 28.59 ± 2.4 %ID/g
%ID/g [^68Ga]Ga-DK223, Kidney (MDAMB231 xenografts [2]; 30 min after injection): 24.4 ± 1.5 %ID/g
%ID/g [^68Ga]Ga-DK223, Kidney (MDAMB231 xenografts [2]; 60 min after injection): 22.99 ± 2.01 %ID/g
%ID/g [^68Ga]Ga-DK223, Kidney (MDAMB231 xenografts [2]; 90 min after injection): 16.23 ± 0.8 %ID/g
%ID/g [^68Ga]Ga-DK223, Kidney (MDAMB231 xenografts [2]; 180 min after injection): 19.14 ± 1.32 %ID/g
in vivo stability, urine [3]: no metabolic cleavage
tissue uptake at 1 h [4]: 21 ± 2.1 %ID/g
Residence time, Adrenals [5]: 0.00014 h
Residence time, Bladder [5]: 0.00187 h
Residence time, Blood [5]: 0.1753 h
Residence time, Brain [5]: 0.00118 h
Residence time, Femur [5]: 0.03956 h
Residence time, Heart [5]: 0.0151 h
Residence time, Kidney [5]: 0.0337 h
Residence time, Large Intestine (with contents) [5]: 0.00099 h
Residence time, Liver [5]: 0.01633 h
Residence time, Lung [5]: 0.03245 h
Residence time, Muscle [5]: 0.06168 h
Residence time, Ovaries [5]: 0.00011 h
Residence time, Pancreas [5]: 0.00052 h
Residence time, Small Intestine (with contents) [5]: 0.00453 h
Residence time, Spleen [5]: 0.00129 h
Residence time, Stomach (with contents) [5]: 0.00072 h
Residence time, Thymus [5]: 0.00047 h
Residence time, Uterus [5]: 0.00114 h
tissue uptake at 0.5 h (in vivo; [10]): 2.22 ± 0.19 %ID/g
tissue uptake at 1.5 h (in vivo; [10]): 0.18 ± 0.03 %ID/g
tissue uptake at 3 h (in vivo; [10]): 0.16 ± 0.11 %ID/g
tissue uptake at 0.5 h (in vivo; %ID/g [^68Ga]Ga-DK223, Bladder): 4.09 ± 0.49 %ID/g
tissue uptake at 1 h (in vivo; %ID/g [^68Ga]Ga-DK223, Bladder): 1.42 ± 0.12 %ID/g
tissue uptake at 1.5 h (in vivo; %ID/g [^68Ga]Ga-DK223, Bladder): 0.78 ± 0.07 %ID/g
tissue uptake at 3 h (in vivo; %ID/g [^68Ga]Ga-DK223, Bladder): 1.28 ± 0.32 %ID/g
tissue uptake at 0.5 h (in vivo; %ID/g [^68Ga]Ga-DK223, Blood): 7.63 ± 0.87 %ID/g
tissue uptake at 1.5 h (in vivo; %ID/g [^68Ga]Ga-DK223, Blood): 2.14 ± 0.08 %ID/g
tissue uptake at 3 h (in vivo; %ID/g [^68Ga]Ga-DK223, Blood): 1.72 ± 0.04 %ID/g
tissue uptake at 0.5 h (in vivo; %ID/g [^68Ga]Ga-DK223, Brain): 0.22 ± 0.05 %ID/g
tissue uptake at 1.5 h (in vivo; %ID/g [^68Ga]Ga-DK223, Brain): 0.05 ± 0.01 %ID/g
tissue uptake at 3 h (in vivo; %ID/g [^68Ga]Ga-DK223, Brain): 0.04 ± 0.01 %ID/g
tissue uptake at 0.5 h (in vivo; %ID/g [^68Ga]Ga-DK223, Femur): 1.74 ± 0.14 %ID/g
tissue uptake at 1.5 h (in vivo; %ID/g [^68Ga]Ga-DK223, Femur): 0.59 ± 0.04 %ID/g
tissue uptake at 3 h (in vivo; %ID/g [^68Ga]Ga-DK223, Femur): 0.64 ± 0.07 %ID/g
tissue uptake at 0.5 h (in vivo; %ID/g [^68Ga]Ga-DK223, Heart): 2.49 ± 0.3 %ID/g
tissue uptake at 1.5 h (in vivo; %ID/g [^68Ga]Ga-DK223, Heart): 0.73 ± 0.03 %ID/g
tissue uptake at 3 h (in vivo; %ID/g [^68Ga]Ga-DK223, Heart): 0.46 ± 0.03 %ID/g
tissue uptake at 0.5 h (in vivo; %ID/g [^68Ga]Ga-DK223, Liver): 2.85 ± 0.41 %ID/g
tissue uptake at 1 h (in vivo; %ID/g [^68Ga]Ga-DK223, Liver): 1.31 ± 0.08 %ID/g
tissue uptake at 1.5 h (in vivo; %ID/g [^68Ga]Ga-DK223, Liver): 0.91 ± 0.11 %ID/g
tissue uptake at 3 h (in vivo; %ID/g [^68Ga]Ga-DK223, Liver): 0.82 ± 0.09 %ID/g
tissue uptake at 0.5 h (in vivo; %ID/g [^68Ga]Ga-DK223, Lung): 11 ± 2.29 %ID/g
tissue uptake at 1.5 h (in vivo; %ID/g [^68Ga]Ga-DK223, Lung): 5.3 ± 1.68 %ID/g
tissue uptake at 3 h (in vivo; %ID/g [^68Ga]Ga-DK223, Lung): 2.98 ± 0.71 %ID/g
tissue uptake at 0.5 h (in vivo; %ID/g [^68Ga]Ga-DK223, Muscle): 0.85 ± 0.09 %ID/g
tissue uptake at 1.5 h (in vivo; %ID/g [^68Ga]Ga-DK223, Muscle): 0.17 ± 0.01 %ID/g
tissue uptake at 3 h (in vivo; %ID/g [^68Ga]Ga-DK223, Muscle): 0.08 ± 0.02 %ID/g
tissue uptake at 0.5 h (in vivo; [11]): 2.01 ± 0.54 %ID/g
tissue uptake at 1 h (in vivo; [11]): 0.45 ± 0.05 %ID/g
tissue uptake at 1.5 h (in vivo; [11]): 0.39 ± 0.01 %ID/g
tissue uptake at 3 h (in vivo; [11]): 0.24 ± 0.03 %ID/g
tissue uptake at 0.5 h (in vivo; %ID/g [^68Ga]Ga-DK223, Spleen): 2.45 ± 0.51 %ID/g
tissue uptake at 1 h (in vivo; %ID/g [^68Ga]Ga-DK223, Spleen): 1.05 ± 0.07 %ID/g
tissue uptake at 1.5 h (in vivo; %ID/g [^68Ga]Ga-DK223, Spleen): 0.71 ± 0.06 %ID/g
tissue uptake at 3 h (in vivo; %ID/g [^68Ga]Ga-DK223, Spleen): 0.58 ± 0.03 %ID/g
tissue uptake at 0.5 h (in vivo; %ID/g [^68Ga]Ga-DK223, Thymus): 7.02 ± 1.06 %ID/g
tissue uptake at 1 h (in vivo; %ID/g [^68Ga]Ga-DK223, Thymus): 3.53 ± 0.27 %ID/g
tissue uptake at 1.5 h (in vivo; %ID/g [^68Ga]Ga-DK223, Thymus): 1.26 ± 0.47 %ID/g
tissue uptake at 3 h (in vivo; %ID/g [^68Ga]Ga-DK223, Thymus): 1.52 ± 0.75 %ID/g
tissue uptake at 0.5 h (in vivo; %ID/g [^68Ga]Ga-DK223, Tumor): 14.3 ± 1.54 %ID/g
tissue uptake at 1.5 h (in vivo; %ID/g [^68Ga]Ga-DK223, Tumor): 12.2 ± 0.32 %ID/g
tissue uptake at 3 h (in vivo; %ID/g [^68Ga]Ga-DK223, Tumor): 11.6 ± 0.79 %ID/g
tissue uptake at 1 h [6]: < 3 %ID/g
Compound: CCCC[C@H]1C(=O)N(C)[C@@H](CCCC)C(=O)N[C@@H](CCCCNC(=O)CN2CCN(CC(=O)O)CCN(CC(=O)O)CCN(CC(=O)O)CC2)C(=O)N[C@H](C(=O)NCC(N)=O)CSCC(=O)N[C@@H](Cc2ccc(O)cc2)C(=O)N(C)[C@@H](C)C(=O)N[C@@H](CC(N)=O)C(=O)N2CCC[C@H]2C(=O)N[C@@H](Cc2c[nH]cn2)C(=O)N[C@@H](CCC(=O)O)C(=O)N2C[C@H](O)C[C@H]2C(=O)N[C@@H](Cc2c[nH]c3ccccc23)C(=O)N[C@@H](CO)C(=O)N[C@@H](Cc2cn(CC(=O)O)c3ccccc23)C(=O)N1C [[^68Ga]Ga-DK223, metal not drawn] ({CH2CO}-Y[NMeA]NPHE[Hyp]WS[Trp(1-CH2COOH)][NMeNle][NMeNle]K(DOTA)CG-NH2; thioether N-14)
in vitro uptake (SUM149 cells): less than 2 %IA
in vitro uptake (SCaBER cells): less than 2 %IA

Compound: durvalumab
half-life [7]: 18 days
[^68Ga]Ga-DK223 uptake in tumors (PET) after mAb treatment (BFTC909 xenografts [8]): significantly lower uptake
[^68Ga]Ga-DK223 uptake in BFTC909 cells in presence of mAb (BFTC909 cells): less than 1%
accessible PD-L1 levels (BFTC909 xenografts [9]; 120 h of treatment, tumor %ID/g as fraction of saline group): less than 10%
[^68Ga]Ga-DK223 tumor uptake versus saline controls (BFTC909 xenografts [9]; 120 h treatment): continued reduction in accessible target levels
